Data on 1 molecule can be found in patent publication US20060178408A1, “Nicotinamide derivatives useful as pde4 inhibitors” (priority 2003, published 2006).

Molecules are shown by their SMILES.

In this experiment the test system is TNFα release from human peripheral blood mononuclear cells. Nature of the experiment: Inhibition of LPS-stimulated TNFα release from human peripheral blood mononuclear cells (TNFα screen, ELISA). In kind it is cell-based. The conditions noted are these: LPS-stimulated human PBMC, 18 hours incubation, TNFα in supernatant by ELISA. The method, then:
Venous blood is collected from healthy volunteers and the mononuclear cells purified by centrifugation through Histopaque (Ficoll) cushions. TNFα production from these cells is stimulated by addition of lipopolysaccharide. After 18 hours incubation in the presence of LPS, the cell supernatant is removed and the concentration of TNFα in the supernatant determined by ELISA.
(ELISA stands for enzyme-linked immunosorbent assay.)

As usually defined, the IC50 is the concentration that inhibits the measured activity by half. The molecule `O=C(N[C@H]1CC[C@@H](NC(=O)c2cc(Cl)cc(Cl)c2O)CC1)c1cc(F)cnc1OC1CCSCC1` [Example 26, Syn-N-[4-(3,5-Dichloro-2-hydroxy-benzoylamino)-cyclohexyl]-5-fluoro-2-(tetrahydro-thiopyran-4-yloxy)-nicotinamide] yielded an IC50 of 14 nM.
